We go through 21 compounds from patent publication US9309222B2, “Phenyl linked quinolinyl modulators of RORγt” (Janssen Pharmaceutica NV, priority 2012, dated 2016).

Values joined by “and” are separate entries in the source; they are usually repeats but may differ in a detail not shown here. Equal values may be shown once. Where a name gives a salt, the structure may show the parent alone.

In assay [1] the test system is IL-17 production by CD4 T cells. Put plainly: Human Th17 assay (IL-17 production by CD4 T cells under Th17 differentiation conditions). The class given is cell-based. As to conditions: IL-17 in supernatant after 3 days. Here is the method: The human Th17 assay tests the effect of RORγt modulatory compounds on IL-17 production by CD4 T cells under conditions which favor Th17 differentiation. Total CD4^+ T cells were isolated from the peripheral blood mononuclear cells (PBMC) of healthy donors using a CD4^+ T cell isolation kit II, following the manufacturer's instructions (Miltenyi Biotec). […] 50 μL of compound at titrated concentrations in DMSO were added into each well at final DMSO concentration at 0.2%. Cells were incubated for 1 hour, then 50 μL of Th17 cell differentiation medium was added to each well. The final concentrations of antibodies and cytokines (R&D Systems) in differentiation medium were: 3×10^6/mL anti-CD3/CD28 beads (prepared using human T cell activation/expansion kit, Miltenyi Biotec), 10 μg/mL anti-IL4, 10 μg/mL anti-IFNγ, 10 ng/mL IL113, 10 ng/mL IL23, 50 ng/mL IL6, 3 ng/mL TGFβ and 20 U/mL IL2. Cells were cultured at 37° C. and 5% CO2 for 3 days. Supernatants were collected and the accumulated IL-17 in culture was measured by using MULTI-SPOT® Cytokine Plate following manufacture's instruction (Meso Scale Discovery). The plate was read using Sector Imager 6000, and IL-17 concentration was extrapolated from the standard curve. The IC50s were determined by GraphPad.

Assay [2] addresses T1, human RORγt ligand binding domain (RORγt LBD) (Homo sapiens, UniProt P51449).
T1 construct: His-tag (N); TurboTEV protease cleavage site (ENLYFQG) (N); made in house; host or cells: E. coli (pHIS1, modified pET vector)
T1 sequence (P51449 with tags, fused parts or gaps): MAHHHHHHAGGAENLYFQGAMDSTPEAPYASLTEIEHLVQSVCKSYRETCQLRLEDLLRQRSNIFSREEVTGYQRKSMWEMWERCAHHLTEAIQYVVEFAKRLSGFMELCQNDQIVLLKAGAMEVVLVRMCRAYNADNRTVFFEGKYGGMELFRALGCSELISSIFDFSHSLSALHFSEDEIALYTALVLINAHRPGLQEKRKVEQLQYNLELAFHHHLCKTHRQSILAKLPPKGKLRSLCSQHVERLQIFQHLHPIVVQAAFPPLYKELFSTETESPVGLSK
Put plainly: RORγt ThermoFluor assay (thermal shift, ligand binding affinity). The note with it: estimated from concentration response of thermal shift. Put shortly: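 Thermal shift of 0.065 mg/mL RORγt with 60 μM 1,8-ANS in 100 mM Hepes pH 7.0, 10 mM NaCl, 2.5 mM GSH, 0.002% Tween-20. Compounds in 1:2 series from 10 mM DMSO stock. Dye fluorescence (500 nm emission) tracked versus temperature; ΔTm used to derive KD.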

Assay [3] deals with T2, human RORγt LBD (Homo sapiens, UniProt P51449).
T2 construct: expressed in transfected cells
T2 sequence (P51449 258-518): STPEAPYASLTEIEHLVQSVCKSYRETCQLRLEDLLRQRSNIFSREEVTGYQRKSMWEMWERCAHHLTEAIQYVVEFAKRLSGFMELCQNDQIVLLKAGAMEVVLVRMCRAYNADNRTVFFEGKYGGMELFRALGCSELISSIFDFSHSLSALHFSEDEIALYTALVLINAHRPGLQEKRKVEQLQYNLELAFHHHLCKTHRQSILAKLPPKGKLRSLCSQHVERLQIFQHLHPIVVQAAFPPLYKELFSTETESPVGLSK
The assay is described as follows: RORγt reporter assay (GAL4-RORγt LBD luciferase in HEK293T cells). As to conditions: for IC50: 24 hours compound treatment; for inhibition at 6 µM: HEK-293T, read-out: RORγt reporter Assay, % inhibition @ 6 μM, HEK293T cells, 6 μM compound. The class given is cell-based. Put shortly:
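Read-out is the firefly-to-renilla luciferase ratio versus compound concentration, after 24 h compound exposure of cells in phenol-red-free DMEM/5% lipid-reduced FCS. Cells were HEK293T bulk-transfected with a GAL4-responsive firefly reporter (pGL4.31) and GAL4 DBD–wild-type human RORγt LBD fusion (pBIND, renilla as transfection/viability control).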
For orientation: Reporter assays use an easily measured gene product as a stand-in for the process of interest.

Consider `Cn1cncc1C(O)(c1ccc(Cl)cc1)c1ccc2nc(Cl)c(-c3ccccc3)c(Cl)c2c1` (racemic) [Example 119a, (4-Chlorophenyl)(2,4-dichloro-3-phenylquinolin-6-yl)(1-methyl-1H-imidazol-5-yl)methanol], for which, in assay [1] (Homo sapiens, CD4+ T, 72 h), the IC50 came to 1800 nM.
Turning to `Cn1cncc1C(O)(c1ccc(Cl)cc1)c1ccc2nc(Cl)c(-c3ccccc3Cl)c(Cl)c2c1` (racemic) [Example 153a, (4-Chlorophenyl)(2,4-dichloro-3-(2-chlorophenyl)quinolin-6-yl)(1-methyl-1H-imidazol-5-yl)methanol], the Kd in assay [2] was 71 nM. Further, the IC50 was 480 nM in assay [1] (Homo sapiens, CD4+ T, 72 h); roughly 700 nM in assay [1]; 230 nM and ~400 nM in assay [3] (HEK293T cells). The inhibition at 6 µM in assay [3] came to 96%.
For `CC(=O)N1CCC(C(O)(c2ccccc2)c2ccc3nc(C(F)(F)F)c(-c4ccccc4)c(C(F)(F)F)c3c2)CC1` (racemic) [Example 169a, 1-(4-(Hydroxy(phenyl)(3-phenyl-2,4-bis(trifluoromethyl)quinolin-6-yl)methyl)piperidin-1-yl)ethanone], the dissociation constant (Kd) in assay [2] was 8.1 nM. In addition, the IC50 amounted to 66 nM in assay [1] (Homo sapiens, CD4+ T, 72 h) and 72 nM in assay [3] (HEK293T cells). The inhibition at 6 µM in assay [3] is 96%.
`Cn1cncc1C(O)(c1ccc(Cl)cc1)c1ccc2nc(Cl)c(-c3ccccc3)c(Cl)c2c1` (single isomer, unassigned) [Example 119b, (4-Chlorophenyl)(2,4-dichloro-3-phenylquinolin-6-yl)(1-methyl-1H-imidazol-5-yl)methanol] yielded a concentration for half-maximal inhibition (IC50) in assay [1] of 15000 nM.
`Cn1cncc1C(O)(c1ccc(Cl)cc1)c1ccc2nc(Cl)c(-c3ccccc3)c(Cl)c2c1` (single isomer, unassigned) [Example 119c, (4-Chlorophenyl)(2,4-dichloro-3-phenylquinolin-6-yl)(1-methyl-1H-imidazol-5-yl)methanol] yielded a half-maximal inhibitory concentration (IC50) in assay [1] (Homo sapiens, CD4+ T, 72 h) of 700 nM.
The compound `Cn1cncc1C(O)(c1ccc(C(F)(F)F)nc1)c1ccc2nc(C(F)(F)F)c(-c3ccccc3)c(C#N)c2c1` (single isomer, unassigned) [Example 173c, 6-(Hydroxy(1-methyl-1H-imidazol-5-yl)(6-(trifluoromethyl)pyridin-3-yl)methyl)-3-phenyl-2-(trifluoromethyl)quinoline-4-carbonitrile] registered a 50% inhibitory concentration (IC50) in assay [1] (Homo sapiens, CD4+ T, 72 h) of 130 nM. The “RORγt reporter Assay, % inhibition @ 6 μM” value in assay [3] (HEK293T cells, 6 μM compound, 6 µM) is given as 95%.
With `OC(c1ccccc1)(c1cccnc1)c1ccc2nc(Cl)c(-c3ccccc3)c(Cl)c2c1` (stereo not shown) [Example 2, (2,4-Dichloro-3-phenylquinolin-6-yl)(phenyl)(pyridin-3-yl)methanol], the concentration for half-maximal inhibition (IC50) is 620 nM in assay [1] (Homo sapiens, CD4+ T, 72 h) and roughly 700 nM in assay [1].
In assay [1] (Homo sapiens, CD4+ T, 72 h), `Cn1cncc1C(O)(c1ccncc1)c1ccc2nc(Cl)c(-c3ccccc3)c(Cl)c2c1` (stereo not shown) [Example 16, (2,4-Dichloro-3-phenylquinolin-6-yl)(1-methyl-1H-imidazol-5-yl)(pyridin-4-yl)methanol] gave a half-inhibitory concentration (IC50) of 130 nM.
On the same count and under the same terms, the figure for `CN(C)c1nc2ccc(C(O)(c3ccncc3)c3cncn3C)cc2c(Cl)c1-c1ccccc1` (stereo not shown) [Example 48a, (4-Chloro-2-(dimethylamino)-3-phenylquinolin-6-yl)(1-methyl-1H-imidazol-5-yl)pyridin-4-ylmethanol•TFA] is 19 nM.
Still for that read-out and setting: the figure for `Cn1cncc1C(O)(c1cccnc1)c1ccc2nc(Cl)c(-c3ccccc3)c(Cl)c2c1` (stereo not shown) [Example 49, (2,4-Dichloro-3-phenylquinolin-6-yl)(1-methyl-1H-imidazol-5-yl)(pyridin-3-yl)methanol] is 410 nM; for `Cc1cc(C(O)(c2ccc3nc(Cl)c(-c4ccccc4)c(Cl)c3c2)c2cncn2C)ccn1` (stereo not shown) [Example 67, (2,4-Dichloro-3-phenylquinolin-6-yl)(1-methyl-1H-imidazol-5-yl)(2-methylpyridin-4-yl)methanol•TFA] it is 27 nM; for `Cn1cncc1C(O)(c1ccnc(F)c1)c1ccc2nc(Cl)c(-c3ccccc3)c(Cl)c2c1` (stereo not shown) [Example 86, (2,4-Dichloro-3-phenylquinolin-6-yl)(2-fluoropyridin-4-yl)(1-methyl-1H-imidazol-5-yl)methanol•TFA] it is 37 nM.
Compound `Cc1nc(C)c(C(O)(c2ccc3nc(Cl)c(-c4ccccc4)c(Cl)c3c2)c2cncn2C)s1` (stereo not shown) [Example 143, (2,4-Dichloro-3-phenylquinolin-6-yl)(2,4-dimethylthiazol-5-yl)(1-methyl-1H-imidazol-5-yl)methanol] came in with a half-maximal inhibitory concentration (IC50) in assay [1] (Homo sapiens, CD4+ T, 72 h) of 20 nM.
As for `OC(c1ccc(Cl)cc1)(c1cccnc1)c1ccc2nc(-c3cccnc3)c(-c3ccccc3)c(Cl)c2c1` (stereo not shown) [Example 151, (4-Chloro-3-phenyl-2-(pyridin-3-yl)quinolin-6-yl)(4-chlorophenyl)(pyridin-3-yl)methanol], the dissociation constant Kd in assay [2] was 5000 nM. This compound came in with a half-inhibitory concentration (IC50) in assay [3] (HEK293T cells) of 2200 nM. The inhibition at 6 µM in assay [3] came to 85%.
The corresponding values for `Cn1cncc1C(O)(c1ccncc1)c1cc(F)c2nc(Cl)c(-c3ccccc3)c(Cl)c2c1` (stereo not shown) [Example 155, (2,4-Dichloro-8-fluoro-3-phenylquinolin-6-yl)(1-methyl-1H-imidazol-5-yl)(pyridin-4-yl)methanol•TFA] are 68 nM, 110 nM and 96%.
The corresponding values for `Cc1ccc(C(O)(c2cc(C)c3nc(Cl)c(-c4ccccc4)c(Cl)c3c2)c2cncn2C)cn1` (stereo not shown) [Example 156, (2,4-Dichloro-8-methyl-3-phenylquinolin-6-yl)(1-methyl-1H-imidazol-5-yl)(6-methylpyridin-3-yl)methanol•TFA] are 57 nM, 320 nM and 98%.
As for `Cn1cncc1C(O)(c1ccncc1)c1ccc2nc(Cl)c(-c3ccccc3)c(Cl)c2c1F` (stereo not shown) [Example 162, (2,4-Dichloro-5-fluoro-3-phenylquinolin-6-yl)(1-methyl-1H-imidazol-5-yl)(pyridin-4-yl)methanol•TFA], the Kd in assay [2] is 200 nM. Besides, the half-maximal inhibitory concentration (IC50) in assay [3] (HEK293T cells) stood at 910 nM. Further, in assay [3], the inhibition at 6 µM stood at 92%.
The corresponding values for `Cn1cncc1C(O)(c1ccc(Cl)cc1)c1ccc2nc(Cl)c(-c3ccccc3)c(Cl)c2c1F` (stereo not shown) [Example 163, (4-Chlorophenyl)(2,4-dichloro-5-fluoro-3-phenylquinolin-6-yl)(1-methyl-1H-imidazol-5-yl)methanol•TFA] are 1200 nM, 1400 nM and 87%.
Take `OC(c1ccccc1)(c1ccc2nc(C(F)(F)F)c(-c3ccccc3)c(C(F)(F)F)c2c1)C1CCNCC1` (stereo not shown) [Example 167, Phenyl(3-phenyl-2,4-bis(trifluoromethyl)quinolin-6-yl)(piperidin-4-yl)methanol•TFA]: the Kd in assay [2] is 400 nM. The IC50 in assay [3] (HEK293T cells) was greater than 6000 nM. Besides, the inhibition at 6 µM in assay [3] was 62%.
The corresponding values for `CCN1CCC(C(O)(c2ccccc2)c2ccc3nc(C(F)(F)F)c(-c4ccccc4)c(C(F)(F)F)c3c2)CC1` (stereo not shown) [Example 168, (1-Ethylpiperidin-4-yl)(phenyl)(3-phenyl-2,4-bis(trifluoromethyl)quinolin-6-yl)methanol•TFA] are 3300 nM, roughly 6000 nM and 71%.
As to `Cn1cncc1C(O)(c1ccc(C(F)(F)F)nc1)c1ccc2nc(C(F)(F)F)c(-c3ccccc3)c(Cl)c2c1` (stereo not shown) [Example 172, (4-Chloro-3-phenyl-2-(trifluoromethyl)quinolin-6-yl)(1-methyl-1H-imidazol-5-yl)(6-(trifluoromethyl)pyridin-3-yl)methanol•TFA], the Kd in assay [2] was 4.6 nM. In addition, half-maximal inhibition in assay [3] (HEK293T cells) (IC50) was put at 140 nM. Further, the inhibition at 6 µM in assay [3] was determined as 96%.

Usually IC50 stands for the concentration at which inhibition is half-maximal. Read a low IC50 as greater potency in that assay. One may read the Kd as the free concentration of one partner at which half of the binding sites on the other are occupied at equilibrium, for simple one-to-one binding. A word on the inhibition: it is the percentage by which the read-out fell short of the control.
